Laboratory results: ChEMBL document CHEMBL4765340, “Novel potent antiplatelet thrombotic agent derived from biguanide for ischemic stroke” (Eur J Med Chem, 2020)
Calls of active or inactive are those of the source. The calls are words filed in the database; no cut-off is given here.

Experiments:
[1] = Toxicity in calcein-labelled platelet-mediated ferric chloride-induced arterial injury thrombosis po dosed C57BL/6J mouse model assessed as change in thrombin time treated twice a day measured upto 7 days; format: organism-based; details: in vivo, 168 h, time <=7 day
[2] = Toxicity in C57BL/6J mouse assessed as change in immature platelet fraction at 200 mg/kg twice daily for 60 days relative to control; format: organism-based; details: in vivo, 1440 h, time 60 day
Platelet [3] = assay: Cytotoxicity against human platelet assessed as extracellular LDH levels changes at 1 mM incubated for 1 hrs; format: cell-based; details: 1000 µM
[4] = Apparent clearance during terminal phase in Sprague-Dawley rat at 200 mg/kg, po measured by HPLC-MS/MS analysis; format: ADME, organism-based; details: in vivo
[5] = Inhibition of thrombin-stimulated human platelet aggregation by measuring aggregation at 0.50 mM measured after 1 hrs by scanning electron microscopy; format: functional; parameters: scale not given: the % may be the effect or the level left; details: dose 0.5 mM
[6] = Toxicity against diabetic C57BL/6J mouse assessed hypoglycemic activity at 200 mg/kg twice a day measured after 60 days relative to parent compound; format: organism-based; details: in vivo, 1440 h, time 60 day
Mus musculus [7] = assay: Antithrombotic activity in calcein-labelled platelet-mediated ferric chloride-induced arterial injury thrombosis C57BL/6J mouse model assessed as thrombus length at 50 mg/kg, po administrated twice a day measured upto 7 days (reference value: 4.4 +/- 0.4 mm); format: functional; details: time day <=7
[8] = Inhibition of thrombin-stimulated human platelet aggregation by measuring aggregation at 0.50 mM measured after 2 hrs by scanning electron microscopy; format: functional; parameters: scale not given: the % may be the effect or the level left; details: dose 0.5 mM
[9] = Inhibition of thrombin-induced platelet aggregation in mouse platelet isolated from C57BL/6J mouse treated at 200 mg/kg, ig twice a day for 7 days by lumi-aggregometer; format: functional; details: po, 168 h, time 7 day
[10] = Inhibition of thrombin-stimulated human platelet aggregation by measuring aggregation at 0.50 mM measured after 4 hrs by scanning electron microscopy; format: functional; parameters: scale not given: the % may be the effect or the level left; details: dose 0.5 mM
Mus musculus [11] = assay: Antithrombotic activity in calcein-labelled platelet-mediated ferric chloride-induced arterial injury thrombosis C57BL/6J mouse model assessed as thrombus weight at 100 mg/kg, po administrated twice a day measured upto 7 days (reference value: 3.3 +/- 0.3 mg); format: functional; details: time day <=7
[12] = Toxicity against C57BL/6J mouse assessed as effect on blood lactic acid at 200 mg/kg twice a day measured after 60 days; format: organism-based; details: in vivo, 1440 h, time 60 day
Mus musculus [13] = assay: Antithrombotic activity in calcein-labelled platelet-mediated ferric chloride-induced arterial injury thrombosis C57BL/6J mouse model assessed as thrombus weight at 200 mg/kg, po administrated twice a day measured upto 7 days (reference value: 3.3 +/- 0.3 mg); format: functional; details: time day <=7
[14] = Toxicity in calcein-labelled platelet-mediated ferric chloride-induced arterial injury thrombosis po dosed C57BL/6J mouse model assessed as change in coagulation factor II treated twice a day measured upto 7 days; format: organism-based; details: in vivo, 50 mg/kg, 168 h, time <=7 day
[15] = Toxicity in C57BL/6J mouse assessed as change in platelet distribution width at 200 mg/kg twice daily for 60 days relative to control; format: organism-based; details: in vivo, 1440 h, time 60 day
[16] = Inhibition of thrombin-stimulated human platelet aggregation measured after 3 hrs by scanning electron microscopy; format: functional, tissue-based
[17] = Toxicity in C57BL/6J mouse assessed as change in calcium level at 200 mg/kg twice daily for 60 days relative to control; format: organism-based; details: in vivo, 1440 h, time 60 day
[18] = Suppression of glycoprotein IIb/IIIa activation in thrombin-stimulated human platelets by measuring activated GPIIb/IIIa at 0.50 mM measured after 3 hrs by PAC-1-FITC dye based flow cytometry (reference value: 90.1%); format: functional; details: Platelet, at 0.5 mM
[19] = Toxicity against C57BL/6J mouse assessed as kidney morphology at 200 mg/kg twice a day measured after 60 days; format: organism-based; details: in vivo, 1440 h, time 60 day
Mus musculus [20] = assay: Antithrombotic activity in transient focal cerebral ischemic mouse model occlusion induced 60 mins of the right middle cerebral artery followed by reperfussion 23 hrs assessed as improve in damaged neural function at 200 mg/kg, po twice daily for 7 days; format: functional, organism-based; details: time 7.0 day
[21] = Suppression of glycoprotein IIb/IIIa activation in thrombin-stimulated human platelets by measuring activated GPIIb/IIIa at 0.05 mM measured after 3 hrs by PAC-1-FITC dye based flow cytometry (reference value: 90.1%); format: functional; details: Platelet
[22] = Toxicity in C57BL/6J mouse assessed as change in glucose level at 200 mg/kg twice daily for 60 days relative to control; format: organism-based; details: in vivo, 1440 h, time 60 day
[23] = Toxicity in calcein-labelled platelet-mediated ferric chloride-induced arterial injury thrombosis po dosed C57BL/6J mouse model assessed as change in coagulation factor VII to XII treated twice a day measured upto 7 days; format: organism-based; details: in vivo, 168 h, time <=7 day
[24] = Toxicity in calcein-labelled platelet-mediated ferric chloride-induced arterial injury thrombosis po dosed C57BL/6J mouse model assessed as change in prothrombin time treated twice a day measured upto 7 days; format: organism-based; details: in vivo, 168 h, time <=7 day
Mus musculus [25] = assay: Antithrombotic activity in calcein-labelled platelet-mediated ferric chloride-induced arterial injury thrombosis C57BL/6J mouse model assessed as thrombus length at 300 mg/kg, po administrated twice a day measured upto 7 days (reference value: 4.4 +/- 0.4 mm); format: functional; details: time day <=7
Mus musculus [26] = assay: Antithrombotic activity in transient focal cerebral ischemic mouse model occlusion induced 60 mins of the right middle cerebral artery followed by reperfussion 23 hrs assessed as decrease in blood viscosity at 200 mg/kg, po twice daily for 7 days; format: functional, organism-based; details: time 7.0 day
[27] = Toxicity in C57BL/6J mouse assessed as change in thrombo-cytocrit at 200 mg/kg twice daily for 60 days relative to control; format: organism-based; details: in vivo, 1440 h, time 60 day
[28] = Suppression of glycoprotein IIb/IIIa activation in thrombin-stimulated human platelets by measuring activated GPIIb/IIIa at 0.10 mM measured after 3 hrs by PAC-1-FITC dye based flow cytometry (reference value: 90.1%); format: functional; details: Platelet, at 0.1 mM
Mus musculus [29] = assay: Antithrombotic activity in transient focal cerebral ischemic mouse model occlusion induced 60 mins of the right middle cerebral artery followed by reperfussion 23 hrs assessed as activated platelets with red blood cells and loose textured stroke thrombi at 200 mg/kg, po twice daily for 7 days by TTC staining based immuno histochemistry analysis; format: functional, organism-based; details: time 7.0 day
Mus musculus [30] = assay: Antithrombotic activity in calcein-labelled platelet-mediated ferric chloride-induced arterial injury thrombosis C57BL/6J mouse model assessed as thrombus length at 200 mg/kg, po administrated twice a day measured upto 7 days (reference value: 4.4 +/- 0.4 mm); format: functional; details: time day <=7
Platelet [31] = assay: Cytotoxicity against human platelet assessed as extracellular LDH levels changes at 1 mM incubated for 6 hrs; format: cell-based; details: 1000 µM
[32] = Toxicity against C57BL/6J mouse assessed as lungs morphology at 200 mg/kg twice a day measured after 60 days; format: organism-based; details: in vivo, 1440 h, time 60 day
[33] = Toxicity in C57BL/6J mouse assessed as change in platelet count at 200 mg/kg twice daily for 60 days relative to control; format: organism-based; details: in vivo, 1440 h, time 60 day
[34] = Toxicity in calcein-labelled platelet-mediated ferric chloride-induced arterial injury thrombosis po dosed C57BL/6J mouse model assessed as change in fibrinogen treated twice a day measured upto 7 days; format: organism-based; details: in vivo, 168 h, time <=7 day
[35] = Toxicity in calcein-labelled platelet-mediated ferric chloride-induced arterial injury thrombosis po dosed C57BL/6J mouse model assessed as change in coagulation factor V treated twice a day measured upto 7 days; format: organism-based; details: in vivo, 168 h, time <=7 day

What does the source list for `CN(C)C(=N)NC(=N)NS(=O)(=O)C(F)(F)F`?
Activity [1]: Non-Toxic; Activity [2]: Non-Toxic; Activity (Platelet [3]): Non-Toxic; CLz/F [4]: 16.6 mL/min/kg; Activity [5]: 60%; Activity [6]: Non-Toxic; Activity (Mus musculus [7]): 3.5 mm; Activity [8]: 35%; inhibition in vivo at 200 mg/kg [9]: 71.5%; Activity [10]: 19.5%; Activity (Mus musculus [11]): 1.1 mg; Activity [12]: Non-Toxic; Activity (Mus musculus [13]): 0.4 mg; Activity [14]: Non-Toxic; Activity [15]: Non-Toxic; IC50 [16]: 150 µM; Activity [17]: Non-Toxic; level, % of control at 500 µM [18]: 37.5%; Activity [19]: Non-Toxic; Activity (Mus musculus [20]): Active; level, % of control at 50 µM [21]: 74.3%; Activity [22]: Non-Toxic; Activity [23]: Non-Toxic; Activity [24]: Non-Toxic; Activity (Mus musculus [25]): 1.4 mm; Activity (Mus musculus [26]): Active; Activity [27]: Non-Toxic; level, % of control at 100 µM [28]: 44.5%; Activity (Mus musculus [29]): Active; Activity (Mus musculus [30]): 1.5 mm; Activity (Platelet [31]): Non-Toxic; Activity [32]: Non-Toxic; Activity [33]: Non-Toxic; Activity [34]: Non-Toxic; Activity [35]: Non-Toxic
